Assays:
[1] = biological target: GDP-bound NRAS wild-type protein (Homo sapiens, UniProt P01111); assay: Binding to NRAS by surface plasmon resonance (SPR), Single Cycle Kinetics; details: KD ratio NRAS/KRAS, class symbols
[2] = biological target: GDP-bound HRAS wild-type protein (Homo sapiens, UniProt P01112); assay: Binding to HRAS by surface plasmon resonance (SPR), Single Cycle Kinetics
[3] = SPR, GDP-bound wild-type proteins

GDP-bound HRAS wild-type protein, sequence (P01112 whole entry): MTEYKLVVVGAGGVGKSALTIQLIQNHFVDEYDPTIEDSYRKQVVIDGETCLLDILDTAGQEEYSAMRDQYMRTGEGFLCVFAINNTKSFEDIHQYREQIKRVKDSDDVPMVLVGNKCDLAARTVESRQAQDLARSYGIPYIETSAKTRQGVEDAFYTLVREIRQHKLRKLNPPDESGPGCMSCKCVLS
GDP-bound NRAS wild-type protein, sequence (P01111 whole entry): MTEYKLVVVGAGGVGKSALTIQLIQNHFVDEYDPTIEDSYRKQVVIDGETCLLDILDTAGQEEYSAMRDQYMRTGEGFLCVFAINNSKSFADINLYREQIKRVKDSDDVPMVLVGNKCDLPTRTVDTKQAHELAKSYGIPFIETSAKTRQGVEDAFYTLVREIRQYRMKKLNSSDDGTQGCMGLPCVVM

**Q.** What does the source list for `CCO[C@@H]1C[C@H]2C(=O)NC3(CC(C)(C)C3)C(=O)N(C)[C@@H](C3CCCC3)C(=O)N(C)[C@H](C(=O)N(C)C)CC(=O)N(C)[C@@H](CC(F)(F)F)C(=O)N[C@@H]([C@@H](C)CC)C(=O)N(C)CC(=O)N(C)[C@H]3C/C=C\CCN(C3=O)[C@@H](Cc3ccc(C(F)(F)F)cc3)C(=O)N(C)CC(=O)N[C@@H](CCc3ccc(Cl)c(Cl)c3)C(=O)N2C1` [PP2832]?
**A.** NRAS/KRAS (ratio of KD value with respect to GDP-bound NRAS wild-type protein to KD value with respect to KRAS) [1]: A (a compound having 10 or more and less than 20 is denoted as A); HRAS/KRAS (ratio of KD value with respect to GDP-bound HRAS wild-type protein to KD value with respect to KRAS) ([2]; class symbols): A (a compound having 10 or more and less than 20 is denoted as A)

**Q.** For `CCC[C@H]1C(=O)N[C@@H](CC(C)C)C(=O)N(C2CC2)CC(=O)N(C)[C@H]2C/C=C\CCN(C2=O)[C@@H](Cc2ccc(C)cc2)C(=O)N(C)CC(=O)N[C@@H](CCc2ccc(C(F)(F)F)c(Cl)c2)C(=O)N2C[C@H](OCC)C[C@H]2C(=O)NC2(CCC2)C(=O)N(C)[C@@H](C2CCCC2)C(=O)N(C)[C@H](C(=O)N(C)C)CC(=O)N1C` [PP2543], which “HRAS/KRAS (ratio of KD value with respect to GDP-bound HRAS wild-type protein to KD value with respect to KRAS)” value ([2]; class symbols) is on record?
**A.** Its value is “B (a compound having 3 or more and less than 10 is denoted as B)”.

**Q.** With `CCC[C@H]1C(=O)N[C@@H]([C@@H](C)CC)C(=O)N(C)CC(=O)N(C)[C@H]2C/C=C\CCN(C2=O)[C@@H](Cc2ccc(C(F)(F)F)cc2)C(=O)N(C)CC(=O)N[C@@H](CCc2ccc(C(F)(F)F)c(OC)c2)C(=O)N2C[C@H](OCC)C[C@H]2C(=O)N(C)C2(CCC2)C(=O)N(C)[C@@H](C2CCCC2)C(=O)N(C)[C@H](C(=O)N2CCCCC2)CC(=O)N1C` [PP3103, (2S,8S,12R,14S,20S,23S,27S,30S,36S,38Z)-20-cyclopentyl-12-ethoxy-8-[2-[3-methoxy-4-(trifluoromethyl)phenyl]ethyl]-4,16,19,22,26,32,35-heptamethyl-30-[(1S)-1-methylpropyl]-23-(piperidine-1-carbonyl)-27-propyl-2-[[4-(trifluoromethyl)phenyl]methyl]spiro[1,4,7,10,16,19,22,26,29,32,35-undecazatricyclo[34.5.1.0^10,14]dotetracont-38-ene-17,1′-cyclobutane]-3,6,9,15,18,21,25,28,31,34,42-undecone] as the compound, how does the “HRAS/KRAS (ratio of KD value with respect to GDP-bound HRAS wild-type protein to KD value with respect to KRAS)” value [2, 3] read?
**A.** Its value is “A (a compound having 10 or more and less than 20 is denoted as A)”.

**Q.** How did the “HRAS/KRAS (ratio of KD value with respect to GDP-bound HRAS wild-type protein to KD value with respect to KRAS)” value ([2]; class symbols) turn out when `CCC[C@H]1C(=O)N[C@@H]([C@@H](C)CC)C(=O)N(C)CC(=O)N(C)[C@H]2C/C=C\CCN(C2=O)[C@@H](Cc2ccc(C)cc2)C(=O)N(C)CC(=O)N[C@@H](CCc2ccc(Cl)c(OC)c2)C(=O)N2C[C@H](OCC)C[C@H]2C(=O)NC2(CC(C)(C)C2)C(=O)N(C)[C@@H](C(CC)CC)C(=O)N(C)[C@H](C(=O)N(C)C)CC(=O)N1C` [PP2791] was run?
**A.** The value was “A (a compound having 10 or more and less than 20 is denoted as A)”.

**Q.** With `CCC(CC)[C@H]1C(=O)N(C)[C@H](C(=O)N(C)C)CC(=O)N(C)[C@@H](COC)C(=O)N[C@@H]([C@@H](C)CC)C(=O)N(C2CC2)CC(=O)N(C)[C@H]2C/C=C\CCN(C2=O)[C@@H](CC2CCCCC2)C(=O)N(C)CC(=O)N[C@@H](CCc2ccc(Cl)c(Cl)c2)C(=O)N2C[C@H](OC(C)C)C[C@H]2C(=O)NC2(CC(C)(C)C2)C(=O)N1C` [PP2517] as the compound, how does the “HRAS/KRAS (ratio of KD value with respect to HRAS to KD value with respect to KRAS)” value ([2]; SPR, GDP-bound HRAS wild-type vs GDP-bound KRAS wild-type) read?
**A.** The value was “A (a compound having 10 or more and less than 20 is denoted as A)”.

**Q.** How did the “HRAS/KRAS (ratio of KD value for HRAS to KD value for KRAS)” value ([2]; KD ratio, GDP-bound HRAS wild-type vs GDP-bound KRAS wild-type, SPR) turn out when `CCO[C@@H]1C[C@H]2C(=O)NC3(CC(C)(C)C3)C(=O)N(C)[C@@H](C3CCCC3)C(=O)N(C)[C@H](C(=O)N(C)CC)CC(=O)N(C)[C@@H](C3CCC3)C(=O)N[C@@H]([C@@H](C)CC)C(=O)N(C)CC(=O)N(C)[C@H]3C/C=C\CCN(C3=O)[C@@H](Cc3ccc(C(F)(F)F)cc3)C(=O)N(C)CC(=O)N[C@@H](CCc3ccc(C(F)(F)F)c(OC)c3)C(=O)N2C1` [PP1985] was run?
**A.** Its value is “B (a compound having 3 or more and less than 10 is denoted as B)”.

**Q.** Which “HRAS/KRAS (ratio of KD value with respect to GDP-bound HRAS wild-type protein to KD value with respect to KRAS)” value ([2]; class symbols) does the source give for `CC[C@H](C)[C@@H]1NC(=O)[C@H](COC)N(C)C(=O)C[C@@H](C(=O)N2CCCCC2)N(C)C(=O)[C@H](C2CCCC2)N(C)C(=O)C2(CC(C)(C)C2)NC(=O)[C@@H]2C[C@@H](OC(C)C)CN2C(=O)[C@H](CCc2cc(F)c(C(F)(F)F)c(F)c2)NC(=O)CN(C)C(=O)[C@H](Cc2ccc(C(F)(F)F)cc2)N2CC/C=C\C[C@@H](C2=O)N(C)C(=O)CN(C)C1=O` [PP2663] here?
**A.** The value was “A (a compound having 10 or more and less than 20 is denoted as A)”.

**Q.** With `CCO[C@@H]1C[C@H]2C(=O)NC3(CC(C)(C)C3)C(=O)N(C)[C@@H](C3CCCC3)C(=O)N(C)[C@H](C(=O)N(C)C)CC(=O)N(C)[C@H]3CCCCCCc4ccc(cc4)C[C@@H](C(=O)N(C)CC(=O)N[C@@H](CCc4ccc(C(F)(F)F)c(OC)c4)C(=O)N2C1)N1CC/C=C\C[C@@H](C1=O)N(C)C(=O)CN(C1CC1)C(=O)[C@H]([C@@H](C)CC)NC3=O` [PP3070] as the compound, how does the “HRAS/KRAS (ratio of KD value with respect to GDP-bound HRAS wild-type protein to KD value with respect to KRAS)” value [2, 3] read?
**A.** Its value is “B (a compound having 3 or more and less than 10 is denoted as B)”.

— patent US20250230193A1, “CYCLIC COMPOUND HAVING SELECTIVE KRAS INHIBITORY EFFECT ON HRAS AND NRAS” (CHUGAI SEIYAKU KABUSHIKI KAISHA, priority 2022, published 2025)
